As a reminder, the inhibition is the relative decrease from the control value, in per cent.

Calls of active or inactive are those of the source. No rule for the calls is given here.

The assay deals with Kappa-type opioid receptor (Homo sapiens) (UniProt P41145). Put plainly: OPRK1 antagonists, confirmation, cell-based, fluorescence (AID 652082). As to conditions: OPRK1 cell line, fluorescence antagonist read-out; at 9 µM; stronger effect = higher value.
Chain of Kappa-type opioid receptor (Homo sapiens) (P41145 whole entry, looked up): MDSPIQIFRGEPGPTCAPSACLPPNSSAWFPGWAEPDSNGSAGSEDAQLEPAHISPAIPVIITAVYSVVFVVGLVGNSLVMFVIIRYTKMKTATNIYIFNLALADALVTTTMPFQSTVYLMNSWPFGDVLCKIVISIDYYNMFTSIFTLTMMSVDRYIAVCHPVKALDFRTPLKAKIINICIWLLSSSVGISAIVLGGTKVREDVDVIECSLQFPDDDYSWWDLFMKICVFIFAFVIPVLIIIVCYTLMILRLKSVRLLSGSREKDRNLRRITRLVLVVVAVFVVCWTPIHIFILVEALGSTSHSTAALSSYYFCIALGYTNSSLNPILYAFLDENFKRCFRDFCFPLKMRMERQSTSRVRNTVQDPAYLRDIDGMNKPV
On to `Clc1ccc2nc3c(nc2c1)Nc1ccccc1S3`, for which the inhibition was 80.7%.
The result for `COC(=O)c1cc(-c2ccc(OC)cc2)c(-c2ccc(OC)cc2)s1` reads 68.6%; that for `O=C(O)C(F)(F)C(F)(F)C(=O)NCc1cccc(Cl)c1`, 0.14% (inactive); that for `S=C(NNc1c(Cl)cncc1Cl)Nc1ccc(Cl)cc1Cl`, 51.8% (inactive).
Turning to `C=CCn1c(-c2sc3nnc(-c4ccccc4)c(-c4ccccc4)c3c2N)n[nH]c1=S`, the inhibition was 30.5% (inactive).
The result for `O=[N+]([O-])c1ccc(C2=NN(c3ccccc3)C(c3ccco3)C2)cc1` (stereo unspecified) reads 82.9%.
The result for `CC(=O)c1sc2nc(-c3cccs3)cc(C(F)(F)F)c2c1N` reads 11.3% (inactive).
Consider `COC(=O)/C=C1\SC(=Nc2ccc(Cl)cc2)N(c2ccc(Cl)cc2)C1=O`, for which the inhibition was 57.8%.
The result for `Nc1c(C(=O)N/N=C/c2ccc3c(c2)OCO3)sc2nnc(-c3ccccc3)c(-c3ccccc3)c12` reads 77.2%; that for `O=C1c2ccc(Cl)c3c(N4CCSCC4)ccc(c23)C(=O)N1c1ccccc1`, 9.35% (inactive); that for `O=C(N/C(=C\c1ccc(-c2ccc([N+](=O)[O-])cc2)o1)c1nc2ccccc2[nH]1)c1ccccc1`, 58.7%.
As for `CCCCCC[n+]1ccccc1/C=C/c1ccc(N(C)C)cc1`, the inhibition is 79.5%.
The result for `O=c1c2cc(-c3ccccc3)sc2nnn1/N=C/c1cccs1` reads 3.84% (inactive); that for `CCOC(=O)C1CCN(Cc2cccc(NC(=O)c3cccs3)c2)CC1`, 0.7% (inactive); that for `CC(=O)N1CCC(C(=O)O/N=C(\N)c2ccc(Cl)cc2)CC1`, -11.1% (inactive).
The result for `N#Cc1cccc(C#N)c1Oc1ccc(N)cc1` reads -6.85% (inactive); that for `O=[N+]([O-])c1ccc(-c2ccc(/C=N/Nc3ccccc3)o2)cc1`, 82.8%.
Take `O=[N+]([O-])c1ccc(N/N=C2\CCOc3ccc(F)cc32)cc1`: the inhibition was 25.4% (inactive).
Then `CN(C)c1cccc2c1c(NC(=O)Nc1ccc(OCc3ccccc3)cc1)nn2C`, with 58.2%.
As for `CCCCNc1ccc2c3c(cccc13)C(=O)N(CCCC)C2=O`, the inhibition is 76.8%.
Then `O=C(NNC(=O)C(F)(F)F)c1ccc[nH]1`, with 9.13% (inactive); and `CN(C)c1cc(NC(=O)Nc2ccccc2)c2ccccc2n1`, with 43.7% (inactive); and `O=[N+]([O-])c1ccc(N2CCc3ccccc32)cc1`, with 17.4% (inactive).
Then `CS(=O)(=O)/C(C#N)=C\c1ccc(Cl)s1`, with 4.17% (inactive).
Turning to `Clc1ccc2c(Nc3ccc4c(c3)OCO4)ccnc2c1`, the inhibition is 30% (inactive).
Then `COc1cccc(C(=O)c2sc3nsc(SCc4ccc(F)cc4)c3c2N)c1`, with 2.74% (inactive); and `COc1ccccc1C1CCN(Cc2ccc3c(c2)CCC(C)(C)O3)CC1`, with 59.5%.
`Cn1c(=O)c2cc3cc(Cl)ccc3nc2c2c(=O)n(-c3ccccc3)c(=O)n(-c3ccccc3)c21`: the inhibition is 58.9%.
The result for `CC(CCC(C)OC(=O)c1ccccc1C(=O)O)OC(=O)c1ccccc1C(=O)O` (stereo unspecified) reads 7.76% (inactive); that for `CSc1sc(C(=O)NC(=O)Nc2ccc(Cl)cc2)c2c1-c1nocc1CC2`, 15.4% (inactive); that for `N#Cc1c(S/C=C(\O)c2cc3ccccc3o2)nc2c(c1C(F)(F)F)CCCC2`, 15.3% (inactive).
Turning to `CSc1ccc(/C=C/c2onc(C)c2[N+](=O)[O-])s1`, the inhibition is 23% (inactive).
The result for `N#Cc1cccnc1NNC(=O)COCC(=O)O` reads 62.5%.
`O=[N+]([O-])c1ccc(N/N=C/c2ccc(-c3cccs3)s2)nc1`: the inhibition was 71.3%.
The result for `O=[N+]([O-])c1c(Sc2ccc(Cl)cc2)ccc2nsnc12` reads 37.2% (inactive); that for `c1ccc(-c2cc3ncnc(NCc4ccc5c(c4)OCO5)c3s2)cc1`, -5.98% (inactive); that for `COC(=O)c1ccc(/C=C2\C(=O)Nc3ccccc32)n1-c1ccc(F)cc1`, 12% (inactive).
Then `CCOC(=O)[C@@H](N)CCSC`, with -3.43% (inactive); and `CCOC(=O)c1cc(C(=O)OC)c(C)nc1N1CCC(NC2CCCCC2O)CC1` (stereo unspecified), with 95.2%.
On to `O=C(Nc1ccc([N+](=O)[O-])cc1)Nc1csc(-c2cccnc2)n1`, for which the inhibition was -2.3% (inactive).
As to `COc1cccc(/C=C(\C#N)c2ccc([N+](=O)[O-])cc2)c1OC`, the inhibition is 34.5% (inactive).
The result for `COc1ccc(OS(=O)(=O)c2sc(Br)cc2Br)cc1` reads 36.2% (inactive).
Then `C=CCNC(=S)NNC(=O)c1oc2nc(-c3ccc(Cl)cc3)cc(-c3ccccc3)c2c1N`, with 11.6% (inactive).
The result for `COC(=O)c1cnn(-c2ccc(Cl)cc2)c1C=C(C#N)C#N` reads 3.67% (inactive).
As for `Cc1ccc(/C=c2\sc3nc4ccccc4n3c2=O)o1`, the inhibition is 5.32% (inactive).
For the molecule `COc1cc([N+](=O)[O-])c(OC)cc1SCc1n[nH]c(=S)n1-c1ccc(C)cc1`, the inhibition is 73.3%.
Then `COc1ccccc1NC(=O)NCCN1CCN(Cc2ccccc2)CC1`, with 59.6%; and `CCN(CC)c1ccc(/C=C/c2ccc([N+](=O)[O-])cc2C#N)cc1`, with 49.6% (inactive).
Then `CC(=O)Nc1onc(C)c1-c1nc(-c2ccc(Cl)cc2Cl)cs1`, with -1.54% (inactive); and `Brc1ccc(-c2csc(Nc3ccncc3)n2)cc1`, with 34.9% (inactive).
Then `O=C(/C=C/c1cc(-c2ccccc2)c(C(F)(F)F)s1)c1cccs1`, with 20.3% (inactive).
Take `C#Cc1cccc(NC(=O)c2sc3nc4c(c(-c5cccs5)c3c2N)CCCC4)c1`: the inhibition is 31.7% (inactive).
The result for `CCOC(=O)c1cn[nH]c1NC(=S)Nc1cccc(C(F)(F)F)c1` reads 46.6% (inactive); that for `CCCCCCCCCCCC(=O)ON1C(=O)CCC1=O`, 36.2% (inactive); that for `Oc1c(Cl)cc(Cl)cc1C1Nc2cc(Cl)c(C(F)(F)F)cc2N1` (stereo unspecified), 58.8%.
`CCOC(=O)C1CCN(Cc2cccc(NC(=O)c3ccco3)c2)CC1`: the inhibition was 35.5% (inactive).
The result for `NC(=NC(=O)c1cccc(C(F)(F)F)c1)c1ccc(C(F)(F)F)cn1` reads 41.2% (inactive).
As for `O=C(Nc1ccc(Cl)cc1Cl)c1cc([N+](=O)[O-])cc2c1-c1ccc([N+](=O)[O-])cc1C2=O`, the inhibition was 59.2%.
Take `COc1ccc([N+](=O)[O-])c(S(=O)(=O)c2ccc(Cl)cc2)n1`: the inhibition is 18.1% (inactive).
Then `CN(C)c1ccc(-n2nnnc2SCc2ccc(Cl)cc2)cc1`, with 26% (inactive); and `CC1COC(c2cccc([N+](=O)[O-])c2)N1` (stereo unspecified), with -9.85% (inactive).
Then `CCOC(=O)c1ccc(N2CC3CCCCN3C2c2cccc(OC)c2O)cc1` (stereo unspecified), with 49% (inactive); and `O=C(Nc1ccc(F)c(Cl)c1)c1cc(Br)ccc1O`, with 62.9%.
Then `O=C(c1cnn(-c2ccc(Cl)cc2)c1C(F)(F)F)N1CCN(c2ncnc3ccsc23)CC1`, with 79%; and `O=[N+]([O-])c1ccc(-c2ccc(/C=N/NC(=S)Nc3cccc(F)c3)o2)cc1`, with 60.3%; and `Nc1c(C(=O)c2ccccc2)sc2nsc(SCCN3CCCC3)c12`, with 43.2% (inactive).

The record behind these values is PubChem BioAssay AID652082 (The Scripps Research Institute Molecular Screening Center, 2013).
